Source: patent US9126986B2, “Hetero-bicyclic derivatives as HCV inhibitors” (Janssen R&D Ireland, priority 2011, dated 2015)
Where two headings read alike, the source gives them in different places.

How the values were obtained:
[1] = tested on: HCV replicon type 1b in Huh-Luc cells; assay: HCV replicon assay, stable transfection (Huh-7 luc/neo, luciferase readout); type: cell-based, HCV type 1b; conditions: stably transfected Huh-Luc cells, genotype 1b, three days incubation, average where tested more than once, read-out: HCV-REP-HUH7LUC_EC50
Text: The compounds of formula (I) were examined for inhibitory activity in the HCV replicon. This cellular assay is based on a bicistronic expression construct, as described by Lohmann et al. (Science (1999) 285: 110-113; Journal of Virology (2003) 77: 3007-3019) with modifications described by Krieger et al. (Journal of Virology (2001) 75: 4614-4624), and Lohmann et al. (Journal of Virology (2003) 77: 3007-3019) for genotype 1b and by Yi et al. (Journal of Virology (2004) 78: 7904-7915) for genotype 1a, in a multi-target screening strategy.
The method was as follows. The assay utilized the stably transfected cell line Huh-7 luc/neo (hereafter referred to as Huh-Luc). This cell line harbors an RNA encoding a bicistronic expression construct comprising the wild type NS3-NS5B regions of HCV type 1b translated from an Internal Ribosome Entry Site (IRES) from encephalomyocarditis virus (EMCV), preceded by a reporter portion (FfL-luciferase), and a selectable marker portion (neoR, neomycine phosphotransferase). The construct is flanked by 5′ and 3′ NTRs (non-translated regions) from HCV type 1b. Continued culture of the replicon cells in the presence of G418 (neoR) is dependent on the replication of the HCV RNA. The stably transfected replicon cells that replicate HCV RNA autonomously and to high levels, encoding inter alia luciferase, were used for screening the antiviral compounds.
The replicon cells were plated in 384 well plates in the presence of the test and control compounds which were added in various concentrations. Following an incubation of three days, HCV replication was measured by assaying luciferase activity (using standard luciferase assay substrates and reagents and a Perkin Elmer ViewLux™ ultraHTS microplate imager). Replicon cells in the control cultures have high luciferase expression in the absence of any inhibitor. The inhibitory activity of the compound was monitored on the Huh-Luc cells, enabling a dose-response curve for each test compound. EC50 values were then calculated, which represent the amount of compound required to decrease the level of detected luciferase activity by 50%, or more specifically, to reduce the ability of the genetically linked HCV replicon RNA to replicate.
Where a compound of formula (I) was tested more than once in the replicon assay, the average of all test results is given in this Table 1.

[2] = tested on: HCV subgenomic replicon genotype 1b Con1 in Huh-7 lunet cells; assay: HCV replicon assay, transient transfection, genotype 1b Con1; type: cell-based, HCV genotype 1b Con1; conditions: transiently transfected Huh-7 lunet, genotype 1b Con1, two days incubation, luciferase
Text: (§1) In a transient set-up, a Huh-7 lunet hepatoma cell line was transiently transfected with an autonomously replicating RNA encoding a bi-cistronic expression construct. This construct comprises a firefly luciferase reporter gene preceding the NS3-NS5B subgenomic region of HCV (genotype 1a H77 or 1b Con1). Translation of the HCV subgenomic region is mediated by an internal ribosome entry site of encephalomyocarditis virus. The construct is furthermore flanked by 5′ and 3′ untranslated regions of HCV (genotype 1a H77 or 1b Con 1, respectively), which allow for replication of the RNA.
(§2) Cells were plated in 384 well plates in the presence of test and control compounds, which were added in various concentrations. Following an incubation of two days, replication of the HCV subgenomic replicon RNA was measured by assaying luciferase activity (using standard luciferase assay substrates and reagents and a Perkin Elmer ViewLux™ ultraHTS microplate imager). HCV subgenomic replicon containing cells in the control cultures have high luciferase expression in the absence of any inhibitor. The inhibitory activity of the compound was monitored, enabling a dose-response curve for each test compound. EC50 values were then calculated, which represent the amount of compound required to decrease the level of detected luciferase activity by 50%, or more specifically, to reduce the ability of the genetically linked HCV subgenomic RNA to replicate.

[3] = tested on: HCV subgenomic replicon genotype 1a H77 in Huh-7 lunet cells; assay: HCV replicon assay, transient transfection, genotype 1a H77; type: cell-based, HCV genotype 1a H77; conditions: transiently transfected Huh-7 lunet, genotype 1a H77, two days incubation, luciferase
Text: as §1, §2

[4] = Counterscreen MT4-LTR-Luc; type: cell-based; conditions: human; MT4 T-cell line with long terminal repeat-Luc reporter
Text: (§3) Counterscreen cell lines included a Huh-7 hepatoma cell line containing a human cytomegalovirus major immediate-early promoter-Luc construct (Huh7-CMV-Luc) and an MT4 T-cell line containing a long terminal repeat-Luc reporter (MT4-LTR-Luc).

[5] = Counterscreen Huh7-CMV-Luc; type: cell-based; conditions: Huh-7 hepatoma cell line with human CMV major immediate-early promoter-Luc construct
Text: as §3

MT4-LTR-Luc cells = assay: Counterscreen MT4-LTR-Luc; type: cell-based; conditions: MT4 T-cell line with long terminal repeat-Luc reporter
Text: as §3

SMILES	EC50 [1]	EC50 [2]	EC50 [3]	CC50 [4]	CC50 [5]	CC50 (MT4-LTR-Luc cells)	EC50 ([1]; Hepatitis C virus, Huh-7, 72 h)	EC50 ([2]; Hepatitis C virus, Huh-7, 48 h)	EC50 ([3]; Hepatitis C virus, Huh-7, 48 h)
COC(=O)N[C@H](C(=O)N1CCCC1c1cc(=O)c2ccc(-c3ccc(-c4ccc(-c5cnc([C@@H]6CCCN6C(=O)[C@@H](NC(=O)OC)C(C)C)[nH]5)cc4)cc3)cc2[nH]1)C(C)C (single isomer, unassigned) [Compound 3a]	0.021 nM	0.025 nM	0.008 nM	> 984 nM	> 984 nM				
COC(=O)N[C@H](C(=O)N1CCCC1c1cc(=O)c2ccc(-c3ccc(-c4ccc(-c5cnc([C@@H]6CCCN6C(=O)[C@@H](NC(=O)OC)C(C)C)[nH]5)cc4)cc3)cc2[nH]1)C(C)C (single isomer, unassigned) [Compound 3b]	1.13 nM	1.36 nM	0.941 nM			> 984 nM			
COC(=O)N[C@H](C(=O)N1CCCC1c1cc(=O)c2ccc(-c3ccc4c(c3)C(F)(F)c3cc(-c5c[nH]c([C@@H]6CCCN6C(=O)[C@@H](NC(=O)OC)C(C)C)n5)ccc3-4)cc2[nH]1)C(C)C (single isomer, unassigned) [Compound 5a]	0.014 nM	0.013 nM	0.007 nM	> 984 nM	> 984 nM				
COC(=O)N[C@H](C(=O)N1CCCC1c1cc(=O)c2ccc(-c3ccc4c(c3)C(F)(F)c3cc(-c5c[nH]c([C@@H]6CCCN6C(=O)[C@@H](NC(=O)OC)C(C)C)n5)ccc3-4)cc2[nH]1)C(C)C (single isomer, unassigned) [Compound 5b]	0.228 nM	0.63 nM	0.21 nM			> 984 nM			
COC(=O)N[C@H](C(=O)N1CCCC1c1[nH]c2cc(-c3ccc(-c4ccc(-c5cnc([C@@H]6CCCN6C(=O)[C@@H](NC(=O)OC)C(C)C)[nH]5)cc4)cc3)ccc2c(=O)c1F)C(C)C (single isomer, unassigned) [Compound 18a]	0.03 nM	0.037 nM	0.011 nM	> 984 nM	> 984 nM				
COC(=O)N[C@H](C(=O)N1CCCC1c1[nH]c2cc(-c3ccc(-c4ccc(-c5cnc([C@@H]6CCCN6C(=O)[C@@H](NC(=O)OC)C(C)C)[nH]5)cc4)cc3)ccc2c(=O)c1F)C(C)C (single isomer, unassigned) [Compound 18b]	4.4 nM	6.7 nM	65.6 nM			> 984 nM			
COC(=O)N[C@H](C(=O)N1CCC[C@H]1c1ncc(-c2ccc3c(c2)C(F)(F)c2cc(-c4ccc5c(=O)cc([C@@H]6C[C@@H]7CCCC[C@@H]7N6C(=O)[C@@H](NC(=O)OC)C(C)C)[nH]c5c4)ccc2-3)[nH]1)C(C)C [Compound 6]				> 984 nM	> 984 nM		0.012 nM	0.013 nM	0.005 nM
COC(=O)N[C@H](C(=O)N1CCC[C@H]1c1cc(=O)c2cc(F)c(-c3ccc(-c4ccc(-c5cnc([C@@H]6CCCN6C(=O)[C@@H](NC(=O)OC)C(C)C)[nH]5)cc4)cc3)cc2[nH]1)C(C)C [Compound 7]				> 984 nM	> 984 nM		0.008 nM	0.021 nM	0.042 nM
COC(=O)N[C@H](C(=O)N1CCC[C@H]1c1ncc(-c2ccc3c(c2)C(F)(F)c2cc(-c4ccc5c(=O)cc([C@@H]6[C@H]7CC[C@H](C7)N6C(=O)[C@@H](NC(=O)OC)C(C)C)[nH]c5c4)ccc2-3)[nH]1)C(C)C [Compound 8]				770 nM	> 984 nM		0.004 nM	0.005 nM	0.003 nM
COC(=O)N[C@H](C(=O)N1CCC[C@H]1c1nc(-c2ccc(-c3ccc(-c4ccc5c(=O)nc([C@@H]6CCCN6C(=O)[C@@H](NC(=O)OC)C(C)C)[nH]c5c4)cc3)cc2)c[nH]1)C(C)C [Compound 11]				> 984 nM	> 984 nM		0.149 nM	0.025 nM	1.47 nM
COC(=O)N[C@H](C(=O)N1CCC[C@H]1c1ncc(-c2ccc3c(c2)C(F)(F)c2cc(-c4ccc5c(=O)[nH]c([C@@H]6CCCN6C(=O)[C@@H](NC(=O)OC)C(C)C)nc5c4)ccc2-3)[nH]1)C(C)C [Compound 12]					> 984 nM		0.007 nM	0.005 nM	0.047 nM
COC(=O)N[C@H](C(=O)N1CCC[C@H]1C1=NS(=O)(=O)c2ccc(-c3ccc4c(c3)C(F)(F)c3cc(-c5cnc([C@@H]6CCCN6C(=O)[C@@H](NC(=O)OC)C(C)C)[nH]5)ccc3-4)cc2N1)C(C)C [Compound 14]				> 984 nM	> 984 nM		0.008 nM	0.017 nM	0.005 nM
COC(=O)N[C@H](C(=O)N1CCC[C@H]1C1=NC2(COC2)c2ccc(-c3ccc4c(c3)C(F)(F)c3cc(-c5cnc([C@@H]6CCCN6C(=O)[C@@H](NC(=O)OC)C(C)C)[nH]5)ccc3-4)cc2N1)C(C)C [Compound 16]				> 984 nM	> 984 nM		0.011 nM	0.033 nM	0.04 nM
COC(=O)N[C@H](C(=O)N1CCC[C@H]1C1=NC2(COC2)c2ccc(-c3ccc(-c4ccc(-c5cnc([C@@H]6CCCN6C(=O)[C@@H](NC(=O)OC)C(C)C)[nH]5)cc4)cc3)cc2N1)C(C)C [Compound 20]				> 984 nM	> 984 nM		0.023 nM	< 0.019 nM	0.46 nM
COC(=O)N[C@H](C(=O)N1CCC[C@H]1C1=NS(=O)(=O)c2ccc(-c3ccc(-c4ccc(-c5c[nH]c([C@@H]6CCCN6C(=O)[C@@H](NC(=O)OC)C(C)C)n5)cc4)cc3)cc2N1)C(C)C [Compound 22]				> 984 nM	> 984 nM		0.012 nM	0.012 nM	0.054 nM
COC(=O)N[C@H](C(=O)N1CC2(C[C@H]1c1ncc(-c3ccc4c(c3)C(F)(F)c3cc(-c5ccc6c(=O)[nH]c([C@@H]7C[C@@H]8CCCC[C@@H]8N7C(=O)[C@@H](NC(=O)OC)C(C)C)nc6c5)ccc3-4)[nH]1)OCCO2)C(C)C [Compound 23]				> 984 nM	> 984 nM		0.006 nM	0.005 nM	0.005 nM
